Reference: patent publication US20040170669A1, “Feed rations and methods of feeding growing ruminants” (priority 2002, published 2004)
Marks after values point to notes of the source that are not given here.

Columns and labels:
[1] = 112-day feeding trial: growing beef cattle fed bermudagrass hay plus molasses-based supplements with corn gluten meal or Alimet; format: in vivo, Angus-Brahman crossbred cattle; conditions: for Liquid supplement refusal: molasses based supplement remaining from last feeding: one value per feeding date; for BCS change (0-112 days): body condition score; for Added gain: over control; for TDN consumed: total digestible nutrients
Experimental: An experiment was conducted to study the effect of increasing quantities of methionine from corn gluten meal, an 88% free acid solution of 2-hydroxy-4-(methylthio)butanoic acid sold under the trademark Alimet® (Novus International, Inc., St. Louis, Mo.), on the performance of growing beef cattle fed bermuda grass hay supplemented with molasses-based supplements. The experiment evaluated the effects of adding corn gluten meal or Alimet® to diets of hay supplemented with molasses-based supplements fed to growing beef cattle.
This experiment evaluated corn gluten meal and Alimet® fed to growing beef cattle at four levels to provide 0, 2, 4, and 6 gm/day of added bypass total sulfur amino acids (TSAA) assuming a 40% bypass of Alimet®. An […] treatment was formulated to provide 8 gm/day of added bypass TSAA from Alimet®. Both TSAA sources were provided in a liquid supplement slurry containing 82% fortified molasses (fortified with ‘12% crude protein, minerals, vitamins) and 18% ground corn or corn gluten meal. Corn gluten meal replaced corn in the supplement keeping the proportion of dry ingredients in the supplement similar across TSAA sources and levels. All supplements were offered to growing cattle to provide 3.28 lb/day of total digestible nutrients (TDN). Supplements were formulated to provide adequate nitrogen in the form of rumen degradable intake protein (DIP) with 0.18 lb DIP provided for each pound of TDN. Much of the DIP in supplements was provided by urea.
This experiment was conducted at the Santa Fe Beef Unit located near Gainesville. Thirty-two pens (4 head/pen) of Angus-Brahman crossbred cattle (9-12 months of age) were assigned randomly within sex and breed type. The calves averaged 610 lb and calves were in excellent body condition (BCS 5.8) at the start of the trial. Each pen was assigned two steers and two heifers. These 32 pens were randomly assigned to the 8 treatments. Each pen was a two-acre pasture and most grass was grazed off at the start of the trial but warm weather allowed some grass growth during February and March. Molasses slurries were fed on two days each week (equivalent amount for 3 or 4 days at each feeding) at the equivalent daily rate. Molasses slurries were hand mixed in each pen and fed in open troughs. Alimet® was pre-weighed in the laboratory and mixed in the supplement of the assigned pen at each feeding. Bermuda grass hay was offered ad libitum in hay rings outside (no shelter) and molasses slurries were limit fed during the 112-day trial (December thru April). Hay not consumed was collected, weighed, sampled (dry matter analyzed), and removed from the pens every 6 to 8 weeks during the trial. Water and a mineral-vitamin supplement were offered ad libitum.
Supplement consumption, hay consumption, full weight, shrunk weight (beginning and end only), height, body condition, and blood urea (2 calves/pen) were measured at 28-day intervals during the 112-day trial. Supplement ingredients were sampled twice monthly and each hay bale was weighed and sampled prior to feeding. Supplement ingredients were analyzed for dry matter, organic matter, crude protein, bypass protein, amino acids, and minerals. Hay samples were analyzed for dry matter, organic matter, crude protein, amino acids, in vitro organic matter digestibility, neutral detergent fiber, and minerals.

[2] = 0 to 6 month old calves, hay plus compound feed; cited from earlier work
[3] = 2 gm bypass TSAA/d (Alimet 5.7 g/d)
[4] = 4 gm bypass TSAA/d (Alimet 11.4 g/d)
[5] = 6 gm bypass TSAA/d (Alimet 17 g/d)
[6] = 8 gm bypass TSAA/d (Alimet 22.7 g/d)

CSCCC(O)C(=O)O (centres unmarked) [Alimet, 2-hydroxy-4-(methylthio)butanoic acid]
Daily gain, 0-28 days (full wt) [1, 3]: 1.58 lb/d | Daily gain, 0-112 days (full wt) [1, 3]: 1.61 lb/d | Daily gain, 1-113 days (shrunk wt) [1, 3]: 1.35^bc lb/d | Daily gain, 28-56 days (full wt) [1, 3]: 1.92 lb/d | Daily gain, 56-84 days (full wt) [1, 3]: 1.09 lb/d | Daily gain, 84-112 days (full wt) [1, 3]: 1.90 lb/d | Feed consumed, Hay [1, 3]: 11.23^b lb/d DM | Feed consumed, Supplement [1, 3]: 4.51^a lb/d DM | Feed consumed, Total [1, 3]: 15.74^b lb/d DM | Feed efficiency, Gain/TDN [1, 3]: .149^acd | Feed efficiency, Gain/feed DM [1, 3]: .087^c | Height change (0-112 days) [1, 3]: 2.73 in. | Daily gain, 0-28 days (full wt) [1, 4]: 1.88 lb/d | Daily gain, 0-112 days (full wt) [1, 4]: 1.53 lb/d | Daily gain, 1-113 days (shrunk wt) [1, 4]: 1.31^ab lb/d | Daily gain, 28-56 days (full wt) [1, 4]: 1.46 lb/d | Daily gain, 56-84 days (full wt) [1, 4]: .99 lb/d | Daily gain, 84-112 days (full wt) [1, 4]: 1.82 lb/d | Feed consumed, Hay [1, 4]: 10.49^b lb/d DM | Feed consumed, Supplement [1, 4]: 4.51^a lb/d DM | Feed consumed, Total [1, 4]: 14.99^b lb/d DM | Feed efficiency, Gain/TDN [1, 4]: .149^acd | Feed efficiency, Gain/feed DM [1, 4]: .088^c | Height change (0-112 days) [1, 4]: 2.45 in. | Daily gain, 0-28 days (full wt) [1, 5]: 1.77 lb/d | Daily gain, 0-112 days (full wt) [1, 5]: 1.69 lb/d | Daily gain, 1-113 days (shrunk wt) [1, 5]: 1.44^bc lb/d | Daily gain, 28-56 days (full wt) [1, 5]: 1.68 lb/d | Daily gain, 56-84 days (full wt) [1, 5]: 1.40 lb/d | Daily gain, 84-112 days (full wt) [1, 5]: 1.98 lb/d | Feed consumed, Hay [1, 5]: 11.04^b lb/d DM | Feed consumed, Supplement [1, 5]: 4.45^a lb/d DM | Feed consumed, Total [1, 5]: 15.49^b lb/d DM | Feed efficiency, Gain/TDN [1, 5]: .159^ad | Feed efficiency, Gain/feed DM [1, 5]: .094^a | Height change (0-112 days) [1, 5]: 2.80 in. | Daily gain, 0-28 days (full wt) [1, 6]: 1.24 lb/d | Daily gain, 0-112 days (full wt) [1, 6]: 1.52 lb/d | Daily gain, 1-113 days (shrunk wt) [1, 6]: 1.31^ab lb/d | Daily gain, 28-56 days (full wt) [1, 6]: 1.49 lb/d | Daily gain, 56-84 days (full wt) [1, 6]: .93 lb/d | Daily gain, 84-112 days (full wt) [1, 6]: 2.48 lb/d | Feed consumed, Hay [1, 6]: 10.49^b lb/d DM | Feed consumed, Supplement [1, 6]: 4.08^b lb/d DM | Feed consumed, Total [1, 6]: 14.57^ab lb/d DM | Feed efficiency, Gain/TDN [1, 6]: .154^d | Feed efficiency, Gain/feed DM [1, 6]: .091^a | Height change (0-112 days) [1, 6]: 2.79 in. | Liquid supplement refusal: molasses based supplement remaining from last feeding ([1]; Alimet 5.7 g/d, pen 1): 25 pounds | Liquid supplement refusal: molasses based supplement remaining from last feeding ([1]; Alimet 11.4 g/d, pen 8): 35 pounds | Liquid supplement refusal: molasses based supplement remaining from last feeding ([1]; Alimet 17 g/d, pen 5): 15 pounds | Liquid supplement refusal: molasses based supplement remaining from last feeding ([1]; Alimet 22.7 g/d, pen 4, feeding date 2.19): 40 pounds | Liquid supplement refusal: molasses based supplement remaining from last feeding ([1]; Alimet 22.7 g/d, pen 4, feeding date 12.18): 20 pounds | Liquid supplement refusal: molasses based supplement remaining from last feeding ([1]; Alimet 22.7 g/d, pen 4, feeding date 12.22): 25 pounds | Liquid supplement refusal: molasses based supplement remaining from last feeding ([1]; Alimet 22.7 g/d, pen 4, feeding date 12.26): 30 pounds | Liquid supplement refusal: molasses based supplement remaining from last feeding ([1]; Alimet 22.7 g/d, pen 4, feeding date 12.29): 35 pounds | Liquid supplement refusal: molasses based supplement remaining from last feeding ([1]; Alimet 22.7 g/d, pen F, feeding date 1.22): 20 pounds | Liquid supplement refusal: molasses based supplement remaining from last feeding ([1]; Alimet 22.7 g/d, pen F, feeding date 3.01): 35 pounds | BCS change (0-112 days) [1, 3]: +.14 | BCS change (0-112 days) [1, 4]: +.09 | BCS change (0-112 days) [1, 5]: +.18 | BCS change (0-112 days) [1, 6]: +.08 | Added gain [1, 3]: .17 lb/d | Added gain [1, 4]: .13 lb/d | Added gain [1, 5]: .26 lb/d | Added gain [1, 6]: .13 lb/d | TDN consumed [1, 3]: 9.21^b lb/d | TDN consumed [1, 4]: 8.84^b lb/d | TDN consumed [1, 5]: 9.13^b lb/d | TDN consumed [1, 6]: 8.56^ab lb/d

CSCCC(O)C(=O)[O-].CSCCC(O)C(=O)[O-].[Ca+2] (centres unmarked) [calcium salt of 2-hydroxy-4-(methylthio)butanoic acid]
Increase of average daily weight gain over control calves [2]: 8-10%
